Data on eleven molecules can be found in patent publication US9266817B2, “Catecholamine derivatives for obesity and neurological disorders” (EMORY UNIVERSITY, priority 2009, dated 2016).

Test [1] deals with T1, TrkB (Rattus norvegicus, UniProt Q63604).
T1 construct: endogenous in cells; host or cells: primary rat cortical and hippocampal neurons
Put plainly: Immunofluorescent staining with anti-phospho-TrkB Y816 in primary hippocampal neurons. To be noted: 300 nM, 30 min. It is filed as cell-based. The procedure:
Primary Rat Cortical and Hippocampal Neuron Cultures
Primary hippocampal neurons were seeded on poly-L-lysine coated coverslips in a 12-well plate. After 7 days in vitro, the neurons were treated with 100 ng/ml BDNF or variety of neurotransmitters and 7,8-dihydroxyflavone compound (500 nM) for 30 min, and then washed with PBS. Cells were fixed with 3% formaldehyde in PBS at room temperature for 15 min. The cells were then permeabilized and blocked by 0.4% Triton X-100 and 2% FBS in PBS at room temperature for 15 minutes, washed with PBS three times and treated with anti-MAP2 (1:200) and anti-phospho-TrkB antibodies (1:100). After staining with FITC- or Rhodamine-conjugated secondary antibody, the coverslips were mounted on slides. Fluorescent images were taken by OLYMPUS IX71 fluorescence microscope (Olympus; Center Valley, Pa.).
(§1) To explore whether monoamine neurotransmitters, including catecholamines (see, e.g., FIG. 1), could stimulate TrkB activation, hippocampal neurons were treated with 300 nM of catecholamines, serotonin, and melatonin for 30 min.

The target in test [2] is T1, TrkB. Briefly: Screening of catecholamine derivatives for TrkB activation in primary cortical neurons (anti-p-TrkB-Y-816 immunoblot). It is filed as cell-based. The note with it: 500 nM, 30 min. Here is the method:
Catecholamines can directly bind to the kinase domain of the TrkB receptor and activate it. However, the catecholamines are not able to cross through the blood brain barrier. […] Cortical neurons (7 DIV cortical neurons from 18 day old Sprague Dawley rat embryos) were treated with 500 nM of the selected compound for 30 min and cell lysates were prepared. The cell lysates ([…]) were analyzed for TrkB activation by immunoblotting with anti-p-TrkB-Y-816 antibody.
Catecholamine derivatives as described herein, including Compound I-2, Compound I-5, Compound I-7, Compound I-8, Compound I-9, Compound I-10, Compound I-11, Compound I-14, Compound I-15, Compound I-17, Compound I-18, and isoproterenol, were screened for TrkB activation in primary cortical neurons. Cortical neurons (7 DIV cortical neurons from 18 day old Sprague Dawley rat embryos) were treated with 500 nM of the selected compound for 30 min and cell lysates were prepared. The cell lysates ([…]) were analyzed for TrkB activation by immunoblotting with anti-p-TrkB-Y-816 antibody.
(In general: Immunoblotting shows a protein as a band on a membrane.)

In test [3] the test system is TrkB. Put plainly: TrkB activation in mouse brain after administration of catecholamine derivatives (anti-p-TrkB-Y-816 immunoblot). It is filed as in vivo. To be noted: 50 mg/kg orally (in saline), C57BL/6J mice. The procedure: To explore whether these compounds could stimulate TrkB in vivo, 50 mg/kg of Compound I-11, Compound I-8, and Compound I-2 (2-(methylamino)-3′,4′-dihydroxy-acetophenone) were each orally administered (in saline) to 2-month-old C57BL/6J mice. The mice were sacrificed at different time points and TrkB activation in the brains of the mice was monitored by immunoblotting with anti-p-TrkB-Y-816 antibody.
To determine the minimal required dosages for Compound I-11 and Compound I-8, different doses of the compounds were each orally administered to mice. The mice were sacrificed after 4 hours, and the brain lysates were analyzed by immunoblotting with anti-p-TrkB-Y-816 antibody.
To search for orally bioactive catecholamines, catecholamine derivatives described herein were screened using primary neuronal cultures. The in vitro active compounds, Compounds I-8 and I-11, were adminstered into two to three month old C57BL/6J mice orally, intraperitoneally, and in drinking water. For oral administration, the mice were administered 0 mg (control), 5 mg, 10 mg, 20 mg, or 50 mg of Compound I-8 or Compound I-11. After 4 hours, TrkB phosphorylation in mouse brain was monitored by analyzing the brain lysates using immunoblotting with anti-p-TrkB-Y-816 antibody. The ratios of p-TrK/total TrkB were quantified (FIG. 27A). For intraperitoneal administration, 50 mg/kg of Compound I-8 or Compound I-11 were intraperitoneally injected into the mice. The brain lysates were prepared at different times (0 hr, 1 hr, 2 hr, 4 hr, and 8 hr) and were analyzed by immunoblotting with anti-p-TrkB-Y-816 antibody (FIG. 27B). Compound I-8 and Compound I-11 were dissolved in drinking water and given to mice. After 24 h, the brain lysates were prepared and analyzed by immunoblotting with anti-p-TrkB-Y-816 antibody (FIG. 27C). […] Therefore, these compounds are useful in treating various neurological or neuropsychiatric diseases as described herein.

Test [4] concerns the target T1, TrkB. Put plainly: TrkB activation in cortical neurons after pretreatment with antibodies, receptor antagonists, transporter inhibitors or EDTA (anti-p-TrkB-Y-816 immunoblot). In kind it is cell-based.
Description: (§2) Both antidepressants and exercise increase hippocampal BDNF mRNA expression through enhanced 5-HT and/or NE neurotransmission (Siuciak et al., Pharmacol. Biochem. Behav., 56:131-137, 1997; Dias et al., Neuropharmacology, 45:553-563, 2003; Ivy et al., Pharmacol. Biochem. Behav., 75:81-88, 2003; Garza et al., Pharmacol. Biochem. Behav., 77:209-220, 2004). If catecholamines activated TrkB signaling indirectly by promoting BDNF generation, then scavenging BDNF with its specific antibody would be expected to diminish catecholamines-mediated activation of TrkB. Cultured cortical neurons were pretreated with BDNF-IgG for 30 minutes followed by exposure to BDNF (10 ng/ml) or catecholamines (100 nM) for 15 minutes. […] It was then determined whether catecholamines could activate TrkB in neurons cultured from mice carrying a null mutation of BDNF.
To further investigate the specificity of catecholamines in inducing TrkB activation, cortical neurons were pretreated with control IgG or norepinephrine IgG, a rabbit polyclonal antibody for norepinephrine, followed by catecholamines.
(§3) It was then determined whether catecholamines could activate TrkB in neurons cultured from mice carrying a null mutation of NET.
(§4) The cell lysates were analyzed by immunoblotting with anti-p-TrkB-Y-816.
as §4
A group of primary cortical neurons were pretreated with 1 mM EDTA, and another group of primary cortical neurons were not pretreated. Both groups of primary cortical neurons were then treated with either Zn (100 μM) or a catecholamine (100 nM) for 15 minutes. The neuronal cell lysates were analyzed by immunoblotting with anti-p-TrkB-Y-816 antibody.

Test [5] concerns TrkB. In kind it is in vivo. The note with it: BDNF conditional knockout mice, compared to vehicle control.
For test [6], the target named is T1, TrkB. Briefly: Immunoblotting of TrkB phosphorylation in primary cortical neurons treated with catecholamines. To be noted: for TrkB activation (immunoblotting of neuronal lysates): primary neurons. It is filed as cell-based. The procedure:
Primary cultured rat cortical neurons were prepared as follows. E17 rat pups were decapitated and cortex was extirpated, cross chopped and suspended by pipetting for separation in 5% fetal calf serum (FCS), 5% horse serum (HS) DMEM. The cell suspension was then centrifuged at 250×g for 5 min. This operation was repeated. Cells were seeded into polyethyleneimine-coated 10 cm^2 dishes and 12-well plates including coated-coverslips and incubated at 37° C. in 5% CO2/95% air. After 3 hours, the culture medium was changed to Neurobasal containing B-27 supplement (Invitrogen; Carlsbad, Calif.) and incubated for 4 days. For maintenance, half of the culture medium was changed to fresh Neurobasal/B27 in every 4 days. After 1 week, the dished cultured neurons were ready for use.
as §1

Test [7] has as its target T2, TrkB (Mus musculus, UniProt P15209, F616A).
T2 construct: from tissue; host or cells: mouse brain
In kind it is in vivo. The note with it: L-DOPA 50 mg/kg, DOPS 100 mg/kg, 1NMPP1 50 μM. The procedure: The DOPS concentration was 20 mg/ml, the vitamin C concentration was 2 mg/ml, and the benserazide concentration was 5 mg/ml. The vitamin C prevents oxidation of the DOPS, and the benserazide is a peripheral inhibitor of AADC and restricts the production of NE from DOPS to the brain. The compounds were added to a tube, and 20 μl of 10 M HCl was added to each ml of DOPS solution. The appropriate amount of water was added to the tube, and then HCl was added to achieve the desired volume. For example, to make 1 mL of a DOPS solution, 20 mg DOPS, 2 mg vitamin C, and 5 mg benserazide were added to a tube, followed by 980 μL of water and 20 μL of 10 M HCl. The solution was vortexed until all DOPS was dissolved. The DOPS solution was injected subcutaneously in a volume of 50 μl/g of mouse. The appropriate amount of DOPS solution was pipetted into a clean tube, followed by the amount of 10 M NaOH required to exactly neutralize the HCl. The solution was then shaken. The amount of 10 M NaOH is the weight of the mouse in microliters. For example, for a 20 g mouse, pipet 1 ml of the DOPS solution is pipetted into a tube and 20 μL of 10 M NaOH is added. For a 30 g mouse, 1.5 mL of the DOPS solution is pipetted into a tube and 30 μl of 10 M NaOH is added. Two to four month-old TrkBF616A mice were pretreated with 1NMPP1 in drinking water (50 μM) 1 day before L-DOPA (50 mg/kg) or DOPS (100 mg/kg) intraperitoneal injection. At times of 2 hours and 5 hours after drug administration, the L-DOPA or DOPS-treated mice were sacrificed, respectively. The brain lysates were prepared and analyzed by immunoblotting against anti-phospho-TrkB Y816 and TrkA Y794 antibodies.
(§5) TrkB F616A mice were pretreated with 1NMPP1 (50 μM) before L-DOPA or DOPS administration.

Test [8] concerns the target T3, TrkB (Mus musculus, UniProt P15209).
T3 construct: endogenous in cells; host or cells: primary cortical neurons from BDNF-null, TrkB +/- cross, TrkC knockout and NET -/- mice
It is filed as cell-based, mice. To be noted: compared to wild-type control neurons. The procedure:
as §3

Test [9] addresses T3, TrkB. Briefly: TrkB activation in cortical neurons cultured from BDNF-null mice. It is filed as cell-based. The note with it: 15 min.
Description: as §2

The target in the next test is T4, TrkB F616A (Mus musculus, UniProt P15209, F616A).
T4 construct: endogenous in cells; host or cells: primary cortical neurons from TrkB F616A knock-in mice
Briefly: TrkB phosphorylation in TrkB F616A or TrkA F592A cortical neurons pretreated with K252a or 1NMPP1. In kind it is cell-based, mice. The note with it: TrkB F616A knock-in cortical neurons. The procedure:
as §5
On day 7, the primary cortical neurons were pretreated with 100 nM K252a or 1NMPP1 for 30 min, followed by 500 nM ADPP and DDAP. Cell lysates were analyzed by Western blotting.

T1 sequence (Q63604 32-821): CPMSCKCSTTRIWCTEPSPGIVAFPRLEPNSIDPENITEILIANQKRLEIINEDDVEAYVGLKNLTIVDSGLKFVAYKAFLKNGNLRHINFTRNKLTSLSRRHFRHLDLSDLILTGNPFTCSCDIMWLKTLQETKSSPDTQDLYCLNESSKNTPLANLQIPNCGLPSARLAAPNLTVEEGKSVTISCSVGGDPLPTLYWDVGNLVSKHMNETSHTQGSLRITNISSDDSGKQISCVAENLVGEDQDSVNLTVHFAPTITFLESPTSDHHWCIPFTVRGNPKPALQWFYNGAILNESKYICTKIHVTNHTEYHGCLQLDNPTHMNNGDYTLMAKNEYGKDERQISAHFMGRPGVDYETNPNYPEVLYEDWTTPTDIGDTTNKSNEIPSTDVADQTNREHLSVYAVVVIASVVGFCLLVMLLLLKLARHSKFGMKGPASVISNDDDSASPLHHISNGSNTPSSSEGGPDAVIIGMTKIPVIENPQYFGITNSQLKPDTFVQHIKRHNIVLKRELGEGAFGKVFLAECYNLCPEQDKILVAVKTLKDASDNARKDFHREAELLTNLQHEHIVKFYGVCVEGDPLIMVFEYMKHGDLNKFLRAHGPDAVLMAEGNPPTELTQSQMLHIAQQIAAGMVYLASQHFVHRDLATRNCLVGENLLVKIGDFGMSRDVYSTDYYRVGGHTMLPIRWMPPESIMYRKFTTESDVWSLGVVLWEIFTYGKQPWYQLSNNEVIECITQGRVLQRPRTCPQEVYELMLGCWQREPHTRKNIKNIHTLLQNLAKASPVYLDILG
T3 sequence (P15209 32-821): as the sequence (Q63604 32-821) above, with M3T, T9S, T10A, I32V, K63R, G84S, T153M, I185L, T394S, N770S counted along it
T4 sequence (P15209 32-821 F616A): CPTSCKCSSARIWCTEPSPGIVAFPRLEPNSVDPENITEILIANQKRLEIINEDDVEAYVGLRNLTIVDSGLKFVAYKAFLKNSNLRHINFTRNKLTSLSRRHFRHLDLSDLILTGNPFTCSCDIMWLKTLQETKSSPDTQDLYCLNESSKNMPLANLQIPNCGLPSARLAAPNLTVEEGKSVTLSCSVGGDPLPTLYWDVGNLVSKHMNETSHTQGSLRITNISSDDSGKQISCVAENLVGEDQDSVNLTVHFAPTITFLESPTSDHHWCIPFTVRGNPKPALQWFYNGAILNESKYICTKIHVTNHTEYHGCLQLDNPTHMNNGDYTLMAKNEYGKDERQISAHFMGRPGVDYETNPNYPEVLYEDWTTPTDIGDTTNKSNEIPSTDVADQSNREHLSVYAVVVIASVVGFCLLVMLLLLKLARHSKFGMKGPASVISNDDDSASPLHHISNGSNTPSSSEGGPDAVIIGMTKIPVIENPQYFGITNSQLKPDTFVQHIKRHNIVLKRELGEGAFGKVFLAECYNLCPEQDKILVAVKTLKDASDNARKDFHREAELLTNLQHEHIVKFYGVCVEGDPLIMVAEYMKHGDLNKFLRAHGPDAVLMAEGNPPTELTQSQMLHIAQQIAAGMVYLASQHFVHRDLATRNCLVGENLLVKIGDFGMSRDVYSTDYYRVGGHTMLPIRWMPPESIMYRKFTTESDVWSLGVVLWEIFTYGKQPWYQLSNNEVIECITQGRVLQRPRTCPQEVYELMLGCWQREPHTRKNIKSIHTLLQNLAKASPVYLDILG
T2 sequence (P15209 32-821 F616A): as above

`O=C(O)Cc1c[nH]c2ccc(O)cc12` [Compound 5-HIAA, 5-hydroxyindoleacetic acid]: the “TrkB tyrosine phosphorylation (immunofluorescent staining)” value on TrkB [1] is “had no effect”.
On the same count and under the same terms, next, `NCCc1c[nH]c2ccc(OS(=O)(=O)O)cc12` [Compound 5-HT-sulfate, 5-HT-sulfate]: “had no effect”.
With `CNCC(=O)c1ccc(O)c(O)c1` [Compound I-2, 2-(methylamino)-3′,4′-dihydroxy-acetophenone], the “TrkB activation in primary cortical neurons” value at TrkB [2] is “display activity”. For the same molecule, in the test with TrkB [3], the “TrkB activation in the brains of the mice” value is “failed to activate TrkB”.
As to `CN[C@@H](C(N)=O)C(=O)c1ccc(O)c(O)c1` [Compound I-7], at TrkB [2], the “TrkB activation in primary cortical neurons” value is given as “display activity”.
Still for that read-out and setting: under `CN[C@@H](C(=O)N(C)C)[C@@H](O)c1ccc(O)c(O)c1` [Compound I-15] stands “display activity”.
`O=C(O)CN(CCN(CC(=O)O)CC(=O)O)CC(=O)O` [EDTA]: on TrkB [4] (1 mM EDTA, Zn 100 μM, 15 minutes), the “Effect of EDTA on stimulatory activity of TrkB activation by Zn” value is “blocked”.
Turning to `c1ccc(CCCN2CCN(CCOC(c3ccccc3)c3ccccc3)CC2)cc1` [GBR12935], the “Effect of inhibitor on dopamine-mediated TrkB activation” value on TrkB [4] (cortical neurons) was “significantly blocked”.
On to `N[C@@H](Cc1ccc(O)c(O)c1)C(=O)O` [L-DOPA, L-dihydroxyphenylalanine], for which the “TrkB activation in BDNF -/- cortex” value in the test on TrkB [5] was “strongly triggered TrkB activation”. Moreover, the “TrkB activation in primary cultured neurons” value on TrkB [6] is given as “rapidly induced TrkB activation”. Besides, the “TrkB tyrosine phosphorylation/activation in mice” value at TrkB [7] was “provoked evident TrkB activation”.
Consider `NCCc1ccc(O)c(O)c1` [dopamine], for which the “TrkB activation in NET -/- neurons” value on TrkB [8] is given as “notable TrkB activation”.
As to `COc1ccc2[nH]cc(CCNC(C)=O)c2c1` [melatonin], the “TrkB activation (immunoblotting of neuronal lysates)” value on TrkB [6] is “not activated”. Moreover, the “TrkB tyrosine phosphorylation (immunofluorescent staining)” value on TrkB [1] is “did not”.
Take `NCCc1c[nH]c2ccc(O)cc12` [serotonin]: the “Activation of TrkB in BDNF-null cortical neurons” value on TrkB [9] is given as “had no effect”. Moreover, on TrkB [6], the “TrkB activation (immunoblotting of neuronal lysates)” value is given as “not activated”. Further, on TrkB F616A, the “TrkB phosphorylation provoked by the substance” value is “had no effect”. Further, the “TrkB tyrosine phosphorylation (immunofluorescent staining)” value on TrkB [1] is on record as “did not”.
